The text below walks through data of patent US20080293781A1, “Salicylic Acid Derivatives” (priority 2005, published 2008).

Series [1] has as its target T1, cyclooxygenase type-2 (COX2) (Mus musculus, UniProt Q05769).
T1 sequence (Q05769 18-604): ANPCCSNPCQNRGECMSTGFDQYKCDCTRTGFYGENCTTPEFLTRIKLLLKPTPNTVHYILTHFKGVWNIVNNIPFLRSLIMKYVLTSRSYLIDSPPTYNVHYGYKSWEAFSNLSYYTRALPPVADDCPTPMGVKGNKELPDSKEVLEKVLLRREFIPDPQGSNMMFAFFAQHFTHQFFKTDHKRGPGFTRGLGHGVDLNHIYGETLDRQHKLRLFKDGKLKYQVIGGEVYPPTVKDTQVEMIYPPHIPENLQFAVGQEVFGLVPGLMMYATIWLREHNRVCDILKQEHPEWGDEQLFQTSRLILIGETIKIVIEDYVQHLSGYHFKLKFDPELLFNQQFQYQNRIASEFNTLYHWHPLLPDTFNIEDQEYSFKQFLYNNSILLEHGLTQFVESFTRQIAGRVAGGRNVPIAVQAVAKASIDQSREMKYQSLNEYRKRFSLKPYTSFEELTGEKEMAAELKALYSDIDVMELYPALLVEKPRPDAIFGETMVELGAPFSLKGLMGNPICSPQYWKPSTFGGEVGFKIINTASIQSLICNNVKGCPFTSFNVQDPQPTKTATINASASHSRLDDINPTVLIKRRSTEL
The experiment in a line: Inhibition of COX2 activity (PGE2 formation) in LPS/IFNγ-induced RAW 264.7 macrophages. Conditions: RAW264.7, read-out: COX2 inhibition %.
Protocol: The inhibitory activity on COX2 was, instead, analyzed following the induction of this protein with 1 μg/mL of the bacterial endotoxin, lipopolysaccharide (LPS) and 10 ng/mL of interferon-γ (IFNγ) that were applied for 16 h to RAW 264.7 macrophages previously treated with 100 μM of the irreversible blocker, aspirin (ASA). Arachidonic acid served as substrate for the enzyme and the extent of PGE2 formation taken as index of COX2 activity.

The target in series [2] is T2, cyclooxygenase type-1 (COX1) (Mus musculus, UniProt P22437).
T2 construct: cyclooxygenase type-1 (COX1) activity was estimated in resting RAW 264.7 macrophages; endogenous in cells; host or cells: RAW 264.7 macrophages (resting)
T2 sequence (P22437 27-602): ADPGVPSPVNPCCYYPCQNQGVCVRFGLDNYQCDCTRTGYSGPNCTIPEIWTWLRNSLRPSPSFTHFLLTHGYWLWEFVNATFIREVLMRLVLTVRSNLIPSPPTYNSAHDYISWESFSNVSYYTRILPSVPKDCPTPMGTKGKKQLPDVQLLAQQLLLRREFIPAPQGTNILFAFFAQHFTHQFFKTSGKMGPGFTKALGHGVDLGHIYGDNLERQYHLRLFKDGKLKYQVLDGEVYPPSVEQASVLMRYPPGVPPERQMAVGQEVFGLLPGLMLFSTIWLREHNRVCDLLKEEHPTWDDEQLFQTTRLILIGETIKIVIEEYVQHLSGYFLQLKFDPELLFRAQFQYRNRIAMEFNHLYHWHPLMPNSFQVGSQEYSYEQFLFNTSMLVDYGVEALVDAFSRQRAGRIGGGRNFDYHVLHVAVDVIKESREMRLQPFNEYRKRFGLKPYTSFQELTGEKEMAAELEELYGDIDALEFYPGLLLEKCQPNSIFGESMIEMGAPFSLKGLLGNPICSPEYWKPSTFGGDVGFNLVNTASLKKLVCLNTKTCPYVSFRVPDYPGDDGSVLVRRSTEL
Kind of series: Inhibition of COX1 activity (PGE2 release) in resting RAW 264.7 macrophages. The class given is cell-based. The settings on record: for Type of inhibition “Irreversibile”: 30 min exposure, substrate applied directly or after extensive washing, difference less than 5% = irreversible. The protocol: The extent and type of inhibitory effects of this class of compounds on cyclooxygenase type-1 (COX1) activity was estimated in resting RAW 264.7 macrophages.
The type of inhibition (irreversible vs. reversible) was determined in resting conditions by exposing the cells to the test compounds for 30 min followed by the application of the substrate either directly or after extensive washing and then incubated for additional 15 min. The presence of residual activity (difference less than 5% vs. that recorded without washing) was taken as index of the irreversible nature of the inhibitory effects of the compounds.

Series [3] in a line: Hydrolysis in acidic medium (pH 1). Type of series: physicochemical. The settings on record: HCl 0.1M, 250 μM, 37°C. How it is done: A solution of each compound (10 mM) in acetonitrile was added to a HCl 0.1M preheated at 37° C., the final concentration of the compound was 250 μM. Resulting solution was maintained at 37±0.5° C. and at appropriate time intervals a 20 μL aliquote of reaction solution was analysed by RP-HPLC.
(§1) The reverse-phase HPLC procedure allowed separation and quantitation of remaining salicylic ester and of salicylic acid.
(§2) HPLC analyses were performed with a HP 1100 chromatograph system (Agilent Technologies, Palo Alto, Calif., USA) equipped with a quaternary pump (model G1311A), a membrane degasser (G1379A), a diode-array detector (DAD) (model G1315B) integrated in the HP1100 system. Data analysis was done using a HP ChemStation system (Agilent Technologies). The analytical column was a Nucleosil 100-5C18 Nautilus (250×4.6 mm, 5 μm particle size) (Macherey-Nagel). The mobile phase consisting of acetonitrile/water (55/45) with 0.1% trifluoroacetic acid and the flow-rate was 1.2 mL/min. The injection volume was 20 μL (Rheodyne, Cotati, Calif.). The column effluent was monitored at 226 nm (for salicylic esters) and 240 nm (for salicylic acid) referenced against a 600 nm wavelength. Quantitation was done by comparison of peak areas with standards chromatographed under the same conditions.
(§3) The hydrolysis of all esters followed first-order kinetics; the observed pseudo-first-order rate constants (kobs) for the hydrolysis were calculated from the slopes of linear plots of the natural logarithm of percent remaining salicylic ester against time and the corresponding half-lives (t1/2) were obtained from: […]

Series [4] has as its system Male Wistar rats (glandular mucosa of the stomach). Kind of series: Gastrolesive activity: gastric mucosal lesion index in rats. Type of series: in vivo. The settings on record: rat, aspirin 120 mg/kg intragastric or equimolar doses, 3 hours after treatment, mean ± SEM. The protocol:
Male Wistar rats, […] (Harlan, S. Pietro al Natisone, Italy) were individually housed in hanging stainless-steel cages with grid floors, at constant room temperature (25±1° C.) and humidity (60±5%), with an artificial 12:12 h light/dark cycle. They were deprived of food but not of water 24 h before the experiments. Groups of rats (n=8-10) were given aspirin (Acetylsalicylic acid) 120 mg/kg by intragastric route or equimolar doses of the compounds under study. Rats were sacrificed 3 hours after the administration of the compounds. Immediately after the sacrifice, the stomachs were removed, opened along the lesser curvature and examined for the assessment of mucosal lesions, the stomachs were laid on a flat surface under a stereomicroscope. The glandular mucosa was examined and each individual hemorrhagic lesion was measured along its greatest length (<1 mm: rating=1; 1-2 mm: rating=2; >2 mm: rating according to their greatest length). The lengths of the lesions were summed to give an overall total, designated as the lesion index, for each stomach. Statistical analysis was performed with ANOVA followed by Newman Keuls test.

Series [5] deals with rats (carrageenan paw edema). The experiment in a line: Anti-inflammatory activity: carrageenan-induced paw edema in conscious rats. Conditions: rat, intragastric, paw volume 3 hours after carrageenan, mean ± SEM. The class given is in vivo. Also on record: concentration or dose not given beside the values. How it is done:
Paw edema was induced in conscious rats by subplantar injection of carrageenan (0.1 ml of 1% carrageenan suspension in carboxymethylcellulose 1%). Immediately after carrageenan injection, compounds or vehicle (CMC, 1%) were administered intragastrically to different groups of rats in a volume of 10 ml/kg. Paw volume was measured with a plethysmometer (Basile, Comerio, Italy) immediately before carrageenan injection and 3 hours afterwards. Paw edema was determined in each rat by subtracting the initial volume displacement (pre-drug) from the subsequent post-carrageenan measurement. Edema was expressed as the percent increase in paw volume relative to the preinjection value for each animal. Statistical analysis was performed with ANOVA followed by Newman Keuls test.

Series [6] can be described thus: Hydrolysis in human serum. Type of series: in vitro ADME. The settings on record: 37°C, RP-HPLC, half-life of hydrolysis, read-out: Uman Serum stability (t1/2 h) (converted). How it is done:
A solution of each compound (10 mM) in acetonitrile was added to human serum (Sigma) preheated at 37° C., the final concentration of the compound was 250 μM. Resulting solution was incubated at 37±0.5° C. and at appropriate time intervals 500 μL of reaction mixture was withdrawn and added to 750 μL of acetonitrile containing 0.1% trifluoroacetic acid in order to deproteinize the serum. Sample was sonicated, vortexed and then centrifuged for 10′ at 2150 g, The clear supernatant was filtered by 0.45 μm PTFE filters (Alltech) and analysed by RP-HPLC.
as §1, §2, §3

[7] abbreviates: 10 μM, resting RAW 264.7 macrophages, arachidonic acid 1 μM.
[8] abbreviates: 30 μM, resting RAW 264.7 macrophages, arachidonic acid 1 μM.
Where [9] appears, read: RAW264.7, read-out: COX1 inhibition %.

Where two headings read alike, the source gives them in different places. Where only a bound is given, the exact number is not on record here.

As for `O=C(CCCCO[N+](=O)[O-])Oc1ccccc1C(=O)O` [(3), 2-{[5-(nitrooxy)pentanoyl]oxy}benzoic acid], in series [1], the inhibition at 1 µM came to 5%, the inhibition at 10 µM came out at 27% and the inhibition at 30 µM was found to be 43%. In addition, the COX1 inhibition % in series [2] (setting [7]) is listed as 66%. Moreover, the COX1 inhibition % in series [2] (setting [8]) came to 77%. The “Type of inhibition “Irreversibile”” value in series [2] is listed as “YES”. The inhibition at 1 µM in series [2] (setting [9]) stood at 11%.

`O=C(CCOc1no[n+]([O-])c1-c1ccccc1)Oc1ccccc1C(=O)O` [Compound 12, 2-[(3-{[5-oxido-4-phenyl-1,2,5-oxadiazol-3-yl]oxy}propanoyl)oxy]benzoic acid] came in with a melting point of 152 to 153.9 °C.

In turn, `O=C(Cc1ccc(OCC(CO[N+](=O)[O-])O[N+](=O)[O-])cc1)Oc1ccccc1C(=O)O` (centres unmarked) yielded a melting point of 94.5 to 95 °C.

In the case of `O=C(CCC(CO[N+](=O)[O-])O[N+](=O)[O-])Oc1ccccc1C(=O)O` (centres unmarked) [Compound (6), 2-{[4,5-bis(nitrooxy)pentanoyl]oxy}benzoic acid], the “pH 1 stability (% after 3 h)” value in series [3] was greater than 85%. In addition, the “Gastrotoxicity Lesion index (mm)” value in series [4] is listed as 0.50 ± 0.22 mm. Further, the “Anti inflammatory activity Paw edema (% increase)” value in series [5] came out at 29.95 ± 7.30 %. For the same compound, in series [6], the half-life at 250 μM was 4.08 h.

As for `CCC(=O)Oc1ccccc1C(=O)O` [Propanoylsalicylic acid, reference compound], the “Gastrotoxicity Lesion index (mm)” value in series [4] was 52.00 ± 11.78 mm. Also, the “Anti inflammatory activity Paw edema (% increase)” value in series [5] was found to be 48.13 ± 6.54%.

Consider `O=C(CCO[N+](=O)[O-])Oc1ccccc1C(=O)O` [Compound (1), 2-{[3-(nitrooxy)propanoyl]oxy}benzoic acid], for which the “pH 1 stability (% after 3 h)” value in series [3] is reported as greater than 90%. In addition, the half-life at 250 μM in series [6] is 0.26 h.

Turning to `O=C(CCOc1no[n+]([O-])c1S(=O)(=O)c1ccccc1)Oc1ccccc1C(=O)O` [Compound (11), 2-[(3-{[5-oxido-4-(phenylsulfonyl)-1,2,5-oxadiazol-3-yl]oxy}propanoyl)oxy]benzoic acid], the melting point lay within 169 to 170 °C. Besides, the “pH 1 stability (% after 3 h)” value in series [3] was greater than 90%. The “Gastrotoxicity Lesion index (mm)” value in series [4] was 0.50 ± 0.31 mm. Also, the “Anti inflammatory activity Paw edema (% increase)” value in series [5] was found to be 34.88 ± 4.69 %. Besides, the half-life at 250 μM in series [6] is 0.44 h.

Regarding `CC(=O)Oc1ccccc1C(=O)O` [Acetylsalicylic acid, reference compound], the “pH 1 stability (% after 3 h)” value in series [3] is greater than 90%. For the same compound, in series [4], the “Gastrotoxicity Lesion index (mm)” value amounted to 44.75 ± 4.66 mm. Besides, the inhibition at 1 µM in series [1] was 2%; in series [2] (RAW264.7, 1 μM, resting RAW 264.7 macrophages, arachidonic acid 1 μM, read-out: COX1 inhibition %), less than 2%. In addition, the inhibition at 10 µM in series [1] turned out to be 5%. In series [1], the inhibition at 30 µM was determined as 20%. Moreover, in series [5], the “Anti inflammatory activity Paw edema (% increase)” value came out at 32.95 ± 3.19 %. For the same compound, the COX1 inhibition % is 27% in series [2] (setting [7]) and 53% in series [2] (setting [8]). For the same compound, in series [2], the “Type of inhibition “Irreversibile”” value is “YES”. Also, the half-life at 250 μM in series [6] was 1.37 h.

As to `O=C(CCCO[N+](=O)[O-])Oc1ccccc1C(=O)O` [(2), 2-{[4-(nitrooxy)butanoyl]oxy}benzoic acid], in series [1], the inhibition at 1 µM was determined as 6%, the inhibition at 10 µM was determined as 15% and the inhibition at 30 µM stood at 44%. The same compound had a COX1 inhibition % in series [2] (setting [7]) of 62%. Besides, the COX1 inhibition % in series [2] (setting [8]) is 77%. The “Type of inhibition “Irreversibile”” value in series [2] is on record as “YES”. Moreover, the inhibition at 1 µM in series [2] (setting [9]) worked out at 21%.

Turning to `O=C(CCCC(CO[N+](=O)[O-])O[N+](=O)[O-])Oc1ccccc1C(=O)O` (centres unmarked) [Compound (7), 2-{[5,6-bis(nitrooxy)hexanoyl]oxy}benzoic acid], the “pH 1 stability (% after 3 h)” value in series [3] is reported as greater than 85%. Besides, in series [4], the “Gastrotoxicity Lesion index (mm)” value amounted to 0.85 ± 0.64 mm. In series [5], the “Anti inflammatory activity Paw edema (% increase)” value worked out at 26.19 ± 3.58 %. Further, the half-life at 250 μM in series [6] is 4.87 h.
